# Experimental data published in patent US20050043551A1, “Method of obtaining 2-(2-nitrovinyl)-furan and the use thereof as a coccidiostatic” (priority 2001, published 2005).
# Values joined by “and” are separate entries in the source; they are usually repeats but may differ in a detail not shown here. Equal entries are not always repeated.
# Assays:
# [1] = Oral Half Lethal Dose (LD50) in hens; assay type: in vivo; conditions: several solvents, mature Leghorn hens
# [2] = Oral Half Lethal Dose (LD50) in rats; assay type: in vivo; conditions: several solvents, female and male Sprague Dawley rats
# [3] = assay type: cell-based
# Description: (§1) In vitro mutagenesis studies were carried out using the micronucleus assay with blockade of cytokinesis with and without metabolic activation, as well as the sister chromatide exchange assay with and without metabolic activation. It was are carried out a theoretical study assisted by computer for the prognosis of the mutagenic activity.
# [4] = In vitro sister chromatide exchange assay; assay type: cell-based; conditions: with and without metabolic activation
# Description: as §1
# Eimeria tenella = assay: Artificial infection of chicks with Eimeria tenella oocysts (Example 2); assay type: in vivo; conditions: 1x10^5 E. tenella oocysts oral; for Weight gain in % during 9 days: 9 days treatment; for Mortality: deaths/12 birds
# Description: To carried out the assay of the action of the synthesized product, the 2-(2nitrovynil)-furan, it was first dissolved first in an alcoholic solution at 3% and later in water, using several concentrations (2, 4, 8 μg/ml) of the alcohol-water solution, as is shown Table 2.
# One day old, male, free of Coccidia, F1 fatten chicks were used. These birds were maintained in an appropriate condition, free of Coccidia until two weeks of age. For feeding, it was used the same food used to fatten chickens but free of anticoccididals.
# 5 groups of 12 poultry with similar weight were formed which received an inoculation of 1×10^5 oocysts of Eimeria tenella by oral route, using a esophagic canula. The treatment began when chicks had 15 days of age, 24 hours before receiving the inoculation, during a period of 9 days.
# To evaluate the effectiveness of the product the gain of weight (% referred to the initial weight) and the death number approaches were used in each tratment.
# E. tenella = assay: Leghorn egg-laying hens naturally infected with E. tenella (Example 3); assay type: in vivo; conditions: 4 μg/mL in drinking water twice a day for 5 days, deaths/2000 birds
# Text: The 2-(2-nitrovynil)-furan, in a formulation similar to that described in the example 2, was applied, in the drinking water twice a day (8 am and 12 m) for 5 days, to 2000 Leghorn egg-laying hens of 56-84 days of age, infected naturally with E. tenella. Two houses highly infected by caecal coccidiosis with 2000 birds each were there was an average of 119 deaths per house in 5 days were selected. The diagnoses was made by the presence of bloody diarrheas, the observation of typical lesions in the blind intestine and abundant presence of parasite oocysts in the caecal content. Infected birds in a house was left as nontreated control and another no infected as neither infected nor treated control having the same range of age.
# To evaluate the effectiveness of the product the approach described in the example 2 was used, except that as weight control. Except that as weight control 10 birds of each pen were randomly selected and weighed at the beginning and the end of the treatment.
# [5] = tested on: intestinal Coccidias (E. perforans, E. magna, E. media, E. exigua); assay: Rabbits inoculated with oocysts of intestinal Eimeria (Example 4); assay type: in vivo; conditions: for Weight gain in % during 7 days: 4 μg/mL in drinking water for 5 days; for Mortality: 4 μg/mL, deaths/3 animals
# Description: The 2-(2-nitrovynil)-furan, in a formulation similar to that described in the example 2, was dissolved in rabbits' drinking water and administered daily at libitum for 5 days. Two experiments (I, II), each one with 9 rabbits, were carried out. Each experiment had 3 treatments of 3 animals each one. Among treatments an infected no treated group and a group neither infected nor treated were considered.. In the 1st experiment each rabbit received 61×10^3 those of the 2nd experiment 116×10^3 oocysts of intestinal Coccidias. The present species were E. perforans 38%, E. magna 30%, E. media 22% and E. exigua 10%, with a 97.3% of sporulation. The initial and final weight difference and the deaths of animals after 7 days treatment was used as evaluation criteria.
# [6] = tested on: Coccidia (E. perforans, E. magna, E. media, E. exigua); assay: Oocyst reduction in feces of treated rabbits in production conditions (Example 5); assay type: in vivo; conditions: 4 μg/ml in drinking water 5 days, before vs after 7 days
# Description: The 2-(2-nitrovynil)-furan, in a formulation similar to that described in the example 2, was dissolved in rabbit's drinking water and administered daily at libitum for 5 days at concentration of 4 μg/ml. It were treated 1 246 newborn, young and adult rabbits of the Chinchilla, New White Zelanda and New Red Zelanda species belonging to 3 rabbit companies. The species of Coccidia present were E. perforans 34%, E. magna 32%, E. media 23% and E. exigua 11%. The amount of oocysts per gram of feces before and after 7 days of the treatment was determined to 20% of all treated animals. The difference between the number of oocysts before and after 7 days of treatment expressed as percentage of oocyst reduction, was taken as efficacy criterium.
# [7] = Experiment I, 61 x 10^3 oocysts
# [8] = Experiment II, 116 x 10^3 oocysts
smiles,measurement,setting,value
O=[N+]([O-])C=Cc1ccco1 [2-(2-nitrovynil)-furan],Half Lethal Dose (LD50),[1],1.02 g/kg of body mass
same,Half Lethal Dose (LD50),[2],171.91 mg/kg of body mass
same,"Mutagenic activity, micronucleus assay",[3],did not shown mutagenic activity
same,"Mutagenic activity, sister chromatide exchange assay",[4],did not shown mutagenic activity
same,Weight gain in % during 9 days,Eimeria tenella; dose 2 μg/mL,78.79%
same,Mortality,Eimeria tenella; dose 2 μg/mL,1/12
same,Mortality,Eimeria tenella; dose 4 μg/mL,no deaths and 0/12
same,Weight gain in % during 9 days,Eimeria tenella; dose 8 μg/mL,63.95%
same,Mortality,Eimeria tenella; dose 8 μg/mL,0/12
same,Mortality in 5 days,E. tenella,remarkable decrease of mortality and 15/2000
same,Weight gain in % during 7 days,[5]; [7],4%
same,Mortality,[5]; [7],no mortality and 0/3
same,Weight gain in % during 7 days,[5]; [8],3%
same,Mortality,[5]; [8],no deaths and 0/3
same,Reduction in % (oocysts per gram of feces),"[6]; Company 1, rabbits",90%
same,Reduction in % (oocysts per gram of feces),"[6]; Company 2, rabbits",99%
same,Reduction in % (oocysts per gram of feces),"[6]; Company 3, rabbits",90%
